Holding throughout (type): in vivo
Assay [1] concerns Solanum nigrum (SOLNI). Kind of assay: Post-emergence biological efficacy, glasshouse pot test. The settings on record: 312 h, post-emergence, 1,000 g/ha, evaluated after 13 days (100=total damage; 0=no damage), read-out: Percentage damage caused to weed species, SOLNI. In short, it runs like this:
(§1)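 Scored 13 days after spraying on a 0 (no damage) to 100 (total damage) scale. Treatment was a post-emergence spray at 1000 or 250 g/ha, from acetone/water 50:50 plus 0.5% Tween 20, onto 8-day-old plants in soil pots. Growth at 24/16° C, 14 h photoperiod, 65% humidity, watered twice daily.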

Assay [2] relates to Echinochloa crus-galli (ECHCG). Described as above. The settings on record: 312 h, post-emergence, 1,000 g/ha, evaluated after 13 days (100=total damage; 0=no damage), read-out: Percentage damage caused to weed species, ECHCG. In short, it runs like this:
as §1

Assay [3] deals with Amaranthus retoflexus (AMARE). Described as above. The settings on record: Amaranthus retroflexus, 312 h; post-emergence, 1,000 g/ha, evaluated after 13 days (100=total damage; 0=no damage); read-out: Percentage damage caused to weed species, AMARE. An outline of the steps:
as §1

Assay [4] has as its system Ipomea hederaceae (IPOHE). The assay is described as above. The settings on record: Ipomoea hederacea, 312 h; post-emergence, 1,000 g/ha, evaluated after 13 days (100=total damage; 0=no damage); read-out: Percentage damage caused to weed species, IPOHE. In short, it runs like this: as §1
In assay [5] the test system is Alopecurus myosuroides (ALOMY). The description is as above. The settings on record: 312 h, post-emergence, 1,000 g/ha, evaluated after 13 days (100=total damage; 0=no damage), read-out: Percentage damage caused to weed species, ALOMY. An outline of the steps:
as §1

Assay [6] has as its system Setaria faberi (SETFA). The assay is described as above. The settings on record: 312 h, post-emergence, 1,000 g/ha, evaluated after 13 days (100=total damage; 0=no damage), read-out: Percentage damage caused to weed species, SETFA. In short, it runs like this:
as §1

For assay [7], the system named is Solanum nigrum (SOLNI). Put plainly: Pre-emergence biological efficacy, glasshouse pot test. The settings on record: 312 h, pre-emergence, 1,000 g/ha, evaluated after 13 days (100=total damage; 0=no damage), read-out: Percentage damage SOLNI. An outline of the steps:
(§2)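 Damage was rated on a 0–100 scale 13 days after treatment, with plants kept at 24/16° C, 14 h light and 65% humidity. The pre-emergence spray, at 1000 or 250 g/ha in acetone/water 50:50 with 0.5% Tween 20, was applied one day after sowing.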

The subject of assay [8] is Echinochloa crus-galli (ECHCG). The description is as above. The settings on record: 312 h, pre-emergence, 1,000 g/ha, evaluated after 13 days (100=total damage; 0=no damage), read-out: Percentage damage ECHCG. In short, it runs like this:
as §2

The test system of assay [9] is Amaranthus retoflexus (AMARE). The assay is described as above. The settings on record: Amaranthus retroflexus, 312 h; pre-emergence, 1,000 g/ha, evaluated after 13 days (100=total damage; 0=no damage); read-out: Percentage damage AMARE. In short, it runs like this: as §2
Assay [10] deals with Ipomea hederaceae (IPOHE). The description is as above. The settings on record: Ipomoea hederacea, 312 h; pre-emergence, 1,000 g/ha, evaluated after 13 days (100=total damage; 0=no damage); read-out: Percentage damage IPOHE. In short, it runs like this: as §2
Assay [11] deals with Alopecurus myosuroides (ALOMY). The assay is described as above. The settings on record: 312 h, pre-emergence, 1,000 g/ha, evaluated after 13 days (100=total damage; 0=no damage), read-out: Percentage damage ALOMY. In short, it runs like this: as §2
Assay [12] relates to Setaria faberi (SETFA). Described as above. The settings on record: 312 h, pre-emergence, 1,000 g/ha, evaluated after 13 days (100=total damage; 0=no damage), read-out: Percentage damage SETFA. In short, it runs like this: as §2

Take `COC(=O)c1nc(C2CC2)nc(NCc2cc(C(F)(F)F)cc(C(F)(F)F)c2)c1Cl` [Compound 4-108, 4-(3,5-Bis-trifluoro-methylphenyl-methylamino)-5-chloro-2-cyclo-propyl-6-methoxy-carbonylpyrimidine]: the pest or weed control at 1000 g/ha in assay [1] came out at 90%; in assay [2], 10%; in assay [3], 50%; in [4], 70%; in assay [5] it was 10%; in assay [6], 20%. Further, the pest or weed control at 1000 g/ha came out at 0% in assay [7]; 0% in assay [8]; 40% in [9]; 40% in [10]; 0% in assay [11]; 10% in assay [12].

Turning to `COC(=O)c1nc(C2CC2)nc(NCc2cccc(OC)c2OC)c1Cl` [Compound 4-109, 5-Chloro-2-cyclopropyl-4-(2,3-dimethoxyphenyl-methylamino)-6-methoxycarbonyl-pyrimidine], the pest or weed control at 1000 g/ha in [1] came to 90%; in [2] it was 60%; in [3], 100%; in assay [4], 100%; in assay [5] it was 20%; in [6], 80%. In addition, the pest or weed control at 1000 g/ha is 50% in assay [7]; 30% in [8]; 70% in assay [9]; 80% in assay [10]; 20% in assay [11]; 30% in assay [12].

Take `COC(=O)c1nc(C2CC2)nc(NCc2ccc(OC)cc2OC)c1Cl` [Compound 4-110, 5-Chloro-2-cyclopropyl-4-(2,4-dimethoxyphenyl-methylamino)-6-methoxycarbonyl-pyrimidine]: the pest or weed control at 1000 g/ha amounted to 80% in [1]; 80% in [2]; 100% in [3]; 100% in assay [4]; 70% in [5]; 80% in [6]. Besides, the pest or weed control at 1000 g/ha in [7] amounted to 90%; in [8], 80%; in [9], 100%; in assay [10] it was 100%; in [11], 40%; in assay [12] it was 40%.

With `COC(=O)c1nc(C2CC2)nc(NCc2c(OC)cccc2OC)c1Cl` [Compound 4-111, 5-Chloro-2-cyclopropyl-4-(2,6-dimethoxyphenyl-methylamino)-6-methoxycarbonyl-pyrimidine], the pest or weed control at 1000 g/ha in assay [1] came out at 100%; in [2], 60%; in assay [3], 100%; in [4] it was 100%; in assay [5], 30%; in [6], 80%. For the same molecule, the pest or weed control at 1000 g/ha in assay [7] stood at 60%; in assay [8], 50%; in assay [9] it was 90%; in assay [10], 80%; in [11], 20%; in [12] it was 40%.

`COC(=O)c1nc(C2CC2)nc(NCc2ccc(OC)c(OC)c2)c1Cl` [Compound 4-112, 5-Chloro-2-cyclopropyl-4-(3,4-dimethoxyphenyl-methylamino)-6-methoxycarbonyl-pyrimidine]: the pest or weed control at 1000 g/ha in assay [1] was 100%; in assay [2], 90%; in [3], 100%; in assay [4], 100%; in assay [5], 40%; in [6], 90%. In addition, the pest or weed control at 1000 g/ha is 90% in [7]; 40% in [8]; 70% in assay [9]; 90% in [10]; 50% in assay [11]; 80% in [12].

As for `COC(=O)c1nc(C2CC2)nc(NCc2ccc3c(c2)OCO3)c1Cl` [Compound 4-115, 4-(Benzo[1,3]-dioxol-5-ylmethyl-amino)-5-chloro-2-cyclopropyl-6-methoxycarbonyl-pyrimidine], the pest or weed control at 1000 g/ha in assay [1] was found to be 100%; in [2] it was 80%; in assay [3], 100%; in [4] it was 100%; in [5], 60%; in assay [6], 90%. For the same molecule, the pest or weed control at 1000 g/ha came to 90% in assay [7]; 60% in assay [8]; 100% in assay [9]; 90% in assay [10]; 30% in assay [11]; 60% in [12].

In the case of `COC(=O)c1nc(C2CC2)nc(NCc2ccc(Cl)c(OC)c2)c1Cl` [Compound 4-116, 5-Chloro-4-(4-chloro-3-methoxy-phenylmethyl-amino)-2-cyclopropyl-6-methoxycarbonyl-pyrimidine], the pest or weed control at 1000 g/ha in [1] was found to be 100%; in assay [2] it was 100%; in assay [3] it was 100%; in [4], 100%; in assay [5], 60%; in assay [6] it was 90%. For the same molecule, the pest or weed control at 1000 g/ha in assay [7] worked out at 100%; in [8], 70%; in assay [9], 100%; in assay [10], 100%; in [11], 50%; in assay [12], 80%.

Consider `COC(=O)c1nc(C2CC2)nc(NCc2c(F)ccc(F)c2F)c1Cl` [Compound 4-118, 5-Chloro-2-cyclopropyl-6-methoxycarbonyl-4-(2,3,6-trifluoro-phenylmethyl-amino)pyrimidine], for which the pest or weed control at 1000 g/ha was 80% in assay [1]; 80% in [2]; 100% in assay [3]; 90% in assay [4]; 60% in [5]; 80% in assay [6]. Besides, the pest or weed control at 1000 g/ha in assay [7] worked out at 40%; in assay [8], 50%; in [9], 40%; in assay [10], 70%; in assay [11], 20%; in assay [12], 0%.

For `COC(=O)c1nc(C2CC2)nc(NCc2cc(F)c(F)cc2F)c1Cl` [Compound 4-120, 5-Chloro-2-cyclopropyl-6-methoxycarbonyl-4-(2,4,5-trifluoro-phenylmethyl-amino)pyrimidine], the pest or weed control at 1000 g/ha in assay [1] worked out at 100%; in assay [2] it was 60%; in [3], 100%; in [4], 100%; in assay [5], 20%; in assay [6], 90%. In addition, the pest or weed control at 1000 g/ha came out at 50% in assay [7]; 20% in [8]; 60% in [9]; 40% in assay [10]; 10% in assay [11]; 10% in assay [12].

The values are drawn from patent US20110086759A1, “CHEMICAL COMPOUNDS” (SYNGENTA CROP PROTECTION, INC., priority 2007, published 2011).
